How the values were obtained:
[1] = test system: women with diminished ovarian reserve (DOR); experiment: IVF cycle and PGD outcomes in DHEA-treated women with DOR (Example 4); format: in vivo, human
Excerpt: All the IVF cycles performed at the Center for Human Reproduction (CHR) in New York, N.Y., between 2004 and 2006 for cycles performed in women with a diagnosis of DOR were retroactively reviewed. The study population, involving 27 IVF cycles, was selected amongst those cycles which, in addition, had undergone preimplantation genetic diagnosis (PGD).
The diagnosis of DOR was made based on previously reported abnormally high, age stratified baseline FSH levels. In practical terms, this meant that a diagnosis of DOR was reached if baseline FSH levels exceeded the 95% confidence interval of age appropriate levels, independent of prior IVF retrievals and/or oocyte numbers. At, or above age 43, all patients were considered to suffer from DOR, independent of baseline FSH level.
If under age 40, DHEA was given for up to four months prior to IVF. Women of older age received DHEA, if possible, for at least two months.
For the purpose of this analysis, a patient had to be for at least one month (30 days) on DHEA supplementation in order for the IVF cycle to be considered amongst DHEA-treated cycles. All other DOR patients were considered to have received no DHEA treatment. Following this definition, 19 DOR patients had received no DHEA supplementation, and eight had.
All women with DOR, independent of DHEA supplementation, were stimulated with identical protocols, as previously reported in detail elsewhere. In short, they, without exception, received a microdose agonist protocol with maximal goandotropin stimulation of 600 IU to 750 IU daily, with preponderance of FSH, and a smaller daily amount of human menopausal gonadotropin (hMG).
PGD was performed in routine fashion, as also previously described in detail, and involved the analysis of chromosomes X, Y, 13, 16, 18, 21 and 22 by fluorescence in situ hybridization (FISH) on day three after fertilization. Embryo transfer occurred on day five after fertilization.
Patients were represented by only one cycle outcome in each group. If patients had undergone more than one cycle, either with, or without, DHEA supplementation, only their latest cycle was included in the analysis. Three patients underwent both a pre-DHEA and a post-DHEA cycle and in those cases both cycles were included in the analysis.
Statistical analysis was performed using SPSS for windows, standard version 10.0.7. Data are presented as mean±one standard deviation, unless otherwise noted, and statistical differences between the two study groups were tested by Chi-square and (two-sided) Fisher's Exact Test, where applicable, with significance being defined as p<0.05.

[2] = test system: women with diminished ovarian reserve; experiment: Miscarriage rates in DHEA pregnancies at two centers versus 2004 national US IVF data (Example 8); format: in vivo, human
Description: Based on reported clinical experiences, the indications for DHEA supplementation have changed over the years, with women above age 40 since 2007 receiving routine supplementation, and younger women receiving supplementation only selectively.
DHEA supplementation involves the use of pharmaceutical grade micronized DHEA at a dosage of about 25 mg, three times daily. Patients are on DHEA supplementation for at least about two months prior to oocyte retrieval. This period of minimal pretreatment is based on the recognition that at two months pregnancy curves between DHEA pretreated and control patients statistically diverge. DHEA is maintained until pregnancy is established and is discontinued with positive pregnancy test.
Toronto West Fertility Associates, in Toronto, Canada, started utilizing DHEA independent of the use of DHEA at the Center for Human Reproduction (CHR) in New York, N.Y. In December of 2007, Toronto's medical director forwarded a detailed electronic record of the center's all-inclusive DHEA experience for analysis to CHR. This study, therefore, reports on the miscarriage rate of pregnancies, independently established under DHEA supplementation at both fertility centers, and compares these rates, age-stratified, to miscarriage rates reported in a national IVF data base in the U.S. for the year 2004. The definitions of clinical pregnancy, and of miscarriage, used herein follow the reporting requirements of this national data base, defining a clinical pregnancy as a pregnancy, confirmed by ultrasound examination.
Miscarriage rates of DHEA supplemented patients were compared with national IVF outcome statistics, reported annually under Federal mandate by the Centers for Disease Control. The data utilized for this study reflect 2004 United States national statistics. Pregnancy and miscarriage rates at the two centers were pooled after confirmation of homogeneity of variance. Common odds ratios of the pooled miscarriage rates among age stratified pregnant patients were compared between the pooled rates and the 2004 US national rates utilizing the Mantel-Haenszel common odds ratio. Statistical analyses were performed using SPSS Windows, standard version 15.0.
DHEA supplementation: After approval by the center's institutional review board, the Center for Human Reproduction (CHR) in New York City has been utilizing DHEA supplementation in women with diminished ovarian reserve since 2004. Based on reported clinical experiences, the indications for such supplementation have changed over the years: In initial stages, only older women, above age 42, were supplemented and only if they had failed at least one IVF cycle and less than 4 oocytes had been retrieved in confirmation of ovarian resistance to stimulation. By mid-2005, indications were expanded to all women above age 40 with evidence of ovarian resistance and a history of one failed prior IVF cycle. […] By mid-2006 FSH baseline criteria were changed from absolute FSH elevations to elevations in age-specific FSH levels.
DHEA supplementation in all patients involves oral, pharmaceutical grade micronized medication at a dosage of 25 mg, three times daily (TID). Only morbidly obese women receive an increased daily dosage of 100 mg and no such women were involved in this study. […] Limited patient volume and funding sources have prevented dose response studies and 25 mg DHEA TID daily has, therefore, remained the only standard treatment dosage. Patients receive at least two months of DHEA supplementation prior to oocyte retrieval, unless they conceive spontaneously during that time period. This minimum pretreatment period is based on the recognition that at two months pregnancy curves between DHEA pretreated and control patients statistically diverge. DHEA is maintained until pregnancy, and is discontinued with second positive pregnancy test. […]

[3] = 3 women with DHEA and no-DHEA cycles, DHEA-treated cycle
[4] = DHEA-treated cycles n = 8, PGD by FISH
[5] = DHEA-treated cycles, at least one euploid embryo for transfer

C[C@]12CC[C@H](O)CC1=CC[C@@H]1[C@@H]2CC[C@]2(C)C(=O)CC[C@@H]12 [DHEA, Dehydroepiandrosterone]
Aneuploid Embryos [1, 3]: 2.0 ± 1.8 | Oocytes ± SD [1, 3]: 6.0 ± 4.8 | Total Embryos ± SD [1, 3]: 4.0 ± 2.7 | Embryos ± SD (total number) ([1]; DHEA-treated cycles n = 8): 9.1 ± 7.3 | Oocytes ± SD ([1]; DHEA-treated cycles n = 8): 10.4±7.3 | Peak Estradiol ± SD ([1]; DHEA-treated cycles n = 8, 25 mg TID at least one month): 2310.3 ± 1108.1 pg/mL | % Aneuploid ± SD [1, 4]: 55.9 ± 37.8% | % Euploid ± SD [1, 4]: 44.1 ± 37.8% | n Aneuploid ± SD [1, 4]: 4.4 ± 3.0 | n Euploid ± SD [1, 4]: 2.1 ± 1.4 | Patients with euploid embryos (%) [1, 5]: 100% | Patients with euploid embryos (n/N) [1, 5]: 8/8 | clinical miscarriage rate, Toronto ([2]; 33 DHEA pregnancies, five miscarriages): 15.2% | clinical miscarriage rate, New York ([2]; 40 DHEA pregnancies, six miscarriages): 15.0% | Misc. Rate (%) ([2]; NY, age 35-37): 0.0% | Miscarriages ([2]; NY, age 35-37, 5 pregnancies): 0 | Misc. Rate (%) ([2]; NY, age 38-40): 0.0% | Miscarriages ([2]; NY, age 38-40, 6 pregnancies): 0 | Misc. Rate (%) ([2]; NY, age 41-42): 20.0% | Miscarriages ([2]; NY, age 41-42, 10 pregnancies): 2 | Misc. Rate (%) ([2]; NY, age <35): 10.0% | Miscarriages ([2]; NY, age <35, 10 pregnancies): 1 | Misc. Rate (%) ([2]; NY, age >42): 33.3% | Miscarriages ([2]; NY, age >42, 9 pregnancies): 3 | Misc. Rate (%) ([2]; TO, age 35-37): 10.0% | Miscarriages ([2]; TO, age 35-37, 10 pregnancies): 1 | Misc. Rate (%) ([2]; TO, age 38-40): 23.1% | Miscarriages ([2]; TO, age 38-40, 13 pregnancies): 3 | Miscarriages ([2]; TO, age 41-42, 0 pregnancies): 0 | Misc. Rate (%) ([2]; TO, age <35): 14.3% | Miscarriages ([2]; TO, age <35, 7 pregnancies): 1 | Misc. Rate (%) ([2]; TO, age >42): 0.0% | Miscarriages ([2]; TO, age >42, 3 pregnancies): 0 | Misc. Rate (%) ([2]; TOTAL both centers, age 35-37): 6.7% | Misc. Rate (%) ([2]; TOTAL both centers, age 38-40): 15.8% | Misc. Rate (%) ([2]; TOTAL both centers, age 41-42): 20.0% | Misc. Rate (%) ([2]; TOTAL both centers, age <35): 11.8% | Misc. Rate (%) ([2]; TOTAL both centers, age >42): 25.0% | reduction in miscarriage risk ([2]; first statistical model (age-stratified odds ratio)): approximately 50% | decline in miscarriages, depending on statistical method ([2]; versus national US IVF pregnancies): 50-80%

From patent publication US9375436B2, “Androgen treatment in females” (priority 2004, dated 2016)
